From publication PMC3170264 (Retrovirology, 2011)

Assays:
[1] = target: T1, HIV-2 N1 IN (Human immunodeficiency virus type 2 subtype B, UniProt Q89928, I1218V/I1301V/I1372V/M1455R/N1185G/N1438H/R1202K/R1392Q/T1348V/T1383A/V1460M); assay: strand transfer inhibition, IN from clinical isolate N1 (wild-type reference); format: biochemical; conditions: IN from RAL-naive patient N1; 200 nM IN; 37°C; Mg2+
T1 construct: His-tag (pET-15b) (N); made in house; host or cells: Escherichia coli BL21-CodonPlus (DE3)-RIPL
T1 sequence (Q89928 1169-1464 N1185G/R1202K/I1218V/I1301V/T1348V/I1372V/T1383A/R1392Q/N1438H/M1455R/V1460M limits assumed): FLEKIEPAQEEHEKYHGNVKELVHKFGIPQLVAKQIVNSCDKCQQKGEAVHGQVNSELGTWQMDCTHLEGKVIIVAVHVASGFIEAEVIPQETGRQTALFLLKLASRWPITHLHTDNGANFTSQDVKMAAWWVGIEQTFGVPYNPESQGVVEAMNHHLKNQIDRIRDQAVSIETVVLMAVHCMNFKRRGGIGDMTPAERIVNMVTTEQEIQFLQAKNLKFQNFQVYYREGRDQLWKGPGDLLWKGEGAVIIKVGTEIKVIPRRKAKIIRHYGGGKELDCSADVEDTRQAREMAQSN
Protocol: The ST reaction was performed using a ^32P-labeled oligonucleotide mimicking the preprocessed substrate. Drug concentrations are indicated above each lane. […] Activity is expressed as a % of control without drug. Experiments were repeated two times.
The HIV-2 ODN substrate sequences were: UA: 5'-[…]-3'; U5B: 5'-[…]-3'; U5B-2: 5'-[…] […]-3'.

[2] = target: HIV-2 IN E92Q (Human immunodeficiency virus type 2 subtype B, UniProt Q89928, E1260Q/I1218V/I1301V/I1372V/M1455R/N1185G/N1438H/R1202K/R1392Q/T1348V/T1383A/V1460M); conditions: E92Q in N1 background; 200 nM IN
Protocol: (§1) Mutations were introduced in the HIV-2 N1 background by mutagenesis. […] Activity is expressed as a % of control without drug. Experiments were performed two times.
(§2) The IN coding sequences from the viruses isolated from the plasma of HIV-2-infected patients N1 to N3 and T1 to T7 were amplified by PCR and sequenced according to a previously described procedure. PCR products corresponding to the entire IN sequence were amplified again with the following specific primers containing NdeI and BamH I restriction sites at their 5' ends. Primer 1: N1, N2, T1, T2, 5'-[…]-3'; N3, 5'-[…]-3'; T3-T7, 5'-[…]-3'. Primers 2: N1, 5'-[…]-3'; N2, 5'-[…]-3'; N3, 5'-[…] The amplicons were then ligated into the TA cloning plasmid pGEM-T easy (Promega, Madison, USA). Single (E92Q, T97A, G140S, Q148R, Y143C, N155H) and double (G140S/Q148R, Y143C/N155H, E92Q/Y143C and T97A/Y143C) mutations were introduced into the HIV-2 wild-type N1 sequence by mutagenesis using the QuickChange II site-directed mutagenesis kit (Agilent Technologies, Santa Clara, USA) according to the manufacturer instructions. NdeI - BamH fragments covering the IN coding sequence were then inserted into the expression vector pET-15b.
(§3) The activity of wild-type and mutated INs was determined in vitro, as previously described. Briefly, oligonucleotides (ODN) mimicking the end of the U5 long terminal repeat of the viral genome were radiolabeled with T4 polynucleotide kinase (Biolabs, Ipswich, USA) and [γ-^32P] ATP (3,000 Ci/mmol) (Amersham, GE Healthcare, USA), then purified on a Sephadex G-10 column (GE Healthcare, USA). Double-stranded ODNs were obtained by mixing equimolar amounts of complementary strands in the presence of 100 mM NaCl.

[3] = target: HIV-2 IN T97A/Y143C (Human immunodeficiency virus type 2 subtype B, UniProt Q89928, I1218V/I1301V/I1372V/M1455R/N1185G/N1438H/R1202K/R1392Q/T1265A/T1348V/T1383A/V1460M/Y1311C); conditions: T97A/Y143C in N1 background; 200 nM IN
Protocol: as §1, §2, §3

[4] = target: HIV-2 IN G140S/Q148R (Human immunodeficiency virus type 2 subtype B, UniProt Q89928, G1308S/I1218V/I1301V/I1372V/M1455R/N1185G/N1438H/Q1316R/R1202K/R1392Q/T1348V/T1383A/V1460M); conditions: G140S/Q148R in N1 background; 200 nM IN
Protocol: as §1, §2, §3

Cc1nnc(C(=O)NC(C)(C)c2nc(C(=O)NCc3ccc(F)cc3)c(O)c(=O)n2C)o1 [RAL, raltegravir]
IC50 [1]: 23 nM | resistance to RAL, strand transfer [2]: did not confer significant resistance | resistance to RAL, strand transfer [3]: did not lead to detectable IN resistance | resistance to RAL, strand transfer [4]: highly resistant
